From patent publication US9770445B2, “Sulfoximine substituted 5-fluoro-N-(pyridin-2-yl)pyridin-2-amine derivatives and their use as CDK9 kinase inhibitors” (BAYER PHARMA AKTIENGESELLSCHAFT, priority 2013, dated 2017)

Molecular target: T1, CDK2/CycE (Homo sapiens, UniProt P24941)
T1 construct: GST; purchased ProQinase GmbH (Freiburg, Germany); host or cells: insect cells (Sf9)
Experiment: CDK2/CycE kinase assay (Method 2, TR-FRET)
Format: biochemical
Details: Method 2, 10 μM ATP
Text: 2. CDK2/CycE Kinase Assay:
CDK2/CycE-inhibitory activity of compounds of the present invention was quantified employing the CDK2/CycE TR-FRET assay as described in the following paragraphs:
Recombinant fusion proteins of GST and human CDK2 and of GST and human CycE, expressed in insect cells (Sf9) and purified by Glutathion-Sepharose affinity chromatography, were purchased from ProQinase GmbH (Freiburg, Germany). As substrate for the kinase reaction biotinylated peptide biotin-Ttds-YISPLKSPYKISEG (C-terminus in amid form) was used which can be purchased e.g. form the company JERINI Peptide Technologies (Berlin, Germany).
For the assay 50 nl of a 100 fold concentrated solution of the test compound in DMSO was pipetted into a black low volume 384 well microtiter plate (Greiner Bio-One, Frickenhausen, Germany), 2 μl of a solution of CDK2/CycE in aqueous assay buffer [50 mM Tris/HCl pH 8.0, 10 mM MgCl2, 1.0 mM dithiothreitol, 0.1 mM sodium ortho-vanadate, 0.01% (v/v) Nonidet-P40 (Sigma)] were added and the mixture was incubated for 15 min at 22° C. to allow pre-binding of the test compounds to the enzyme before the start of the kinase reaction. Then the kinase reaction was started by the addition of 3 μl of a solution of adenosine-tri-phosphate (ATP, 16.7 μM=>final conc. in the 5 μl assay volume is 10 μM) and substrate (1.25 μM=>final conc. in the 5 μl assay volume is 0.75 μM) in assay buffer and the resulting mixture was incubated for a reaction time of 25 min at 22° C. The concentration of CDK2/CycE was adjusted depending of the activity of the enzyme lot and was chosen appropriate to have the assay in the linear range, typical concentrations were in the range of 130 ng/mL. The reaction was stopped by the addition of 5 μl of a solution of TR-FRET detection reagents (0.2 μM streptavidine-XL665 [Cisbio Bioassays, Codolet, France] and 1 nM anti-RB(pSer807/pSer811)-antibody from BD Pharmingen [#558389] and 1.2 nM LANCE EU-W1024 labeled anti-mouse IgG antibody [Perkin-Elmer, product no. AD0077]) in an aqueous EDTA-solution (100 mM EDTA, 0.2% (w/v) bovine serum albumin in 100 mM HEPES/NaOH pH 7.0).
The resulting mixture was incubated 1 h at 22° C. to allow the formation of complex between the phosphorylated biotinylated peptide and the detection reagents. Subsequently the amount of phosphorylated substrate was evaluated by measurement of the resonance energy transfer from the Eu-chelate to the streptavidine-XL. Therefore, the fluorescence emissions at 620 nm and 665 nm after excitation at 350 nm was measured in a TR-FRET reader, e.g. a Rubystar (BMG Labtechnologies, Offenburg, Germany) or a Viewlux (Perkin-Elmer). The ratio of the emissions at 665 nm and at […] was taken as the measure for the amount of phosphorylated substrate. The data were normalised (enzyme reaction without inhibitor=0% inhibition, all other assay components but no enzyme=100% inhibition).

| SMILES | IC50 |
| --- | --- |
| CS(=N)(=O)Cc1ccnc(Nc2cc(-c3ccc(F)c4ccoc34)c(F)cn2)c1 (single isomer, unassigned; (-)) [Example 15, (−)-5-Fluoro-4-(4-fluoro-1-benzofuran-7-yl)-N-{4-[(S-methylsulfonimidoyl)methyl]pyridin-2-yl}pyridin-2-amine] | 121 nM |
| CS(=N)(=O)Cc1ccnc(Nc2cc(-c3ccc(F)c4ccoc34)c(F)cn2)c1 (single isomer, unassigned; (+)) [Example 14, (+)-5-Fluoro-4-(4-fluoro-1-benzofuran-7-yl)-N-{4-[(S-methylsulfonimidoyl)methyl]pyridin-2-yl}pyridin-2-amine] | 142 nM |
